In publication PMC10604720, “Unraveling the Mechanism of Epichaperome Modulation by Zelavespib: Biochemical Insights on Target Occupancy and Extended Residence Time at the Site of Action” (Biomedicines, 2023):

Experiments:
[1] = set-up: method as in PMID 31668946; conditions: whole-body PET imaging, mice; cited from earlier work
[2] = Biodistribution / PET pharmacokinetics of [124I]-zelavespib in MDA-MB-468 tumor-bearing mice (data of ref 32, refitted to exponential decay); format: in vivo, mouse
Procedure: Iodine-124 is a ‘non-residualizing’ isotope (i.e., free iodine-124 washes out from cells), and therefore, data derived from positron emission tomography imaging of MDA-MB-468-bearing mice that were administered a tracer amount of [^124I]-PU-AD can be used to determine real-time zelavespib concentrations delivered to tumors. Because positron emission tomography provides information on radioactivity and not molar concentrations, radioactivity data from Pillarsetty et al. were transformed into tumor concentrations to calculate the time-dependent zelavespib concentrations in tumors for an administered dose of 50 mg/kg. The drug concentration (in μM) in the tumor water space, [Drugtumor], at the time t post-administration is therefore: [Drugtumor]t=Drugdose·[Atumor]t/100%·1/W·1×10^6/MW µM where Drugdose is the administered drug dose (in mg), [Atumor]t is the activity concentration (in % injected dose per milliliter, %ID/mL) of the surrogate radiotracer, W is the water space of the tissue (in mL/g), MW is the molecular weight of the drug (i.e., zelavespib), and the factor 1 × 10^6 converts the concentration to μM. For the drug zelavespib and the surrogate radiotracer […] co-injected in a ratio of ~1 to 10,000, the drug itself is essentially the only significant form of the drug–surrogate combination in the tumor. Thus, for a co-administered dose of zelavespib (zelavespibdose in mg) and a tracer amount of [^124I]-PU-AD, the drug concentration in the tumor water space (using an average water space, W = 0.8 mL/g, and the molecular weight MW = 512) is: [Zelavespibtumor]t=Zelavespibdose · [Atumor]t/100%·2.44×10^3 µM
To study the zelavespib–epichaperome interaction in vivo, we selected, for simplicity, an epichaperome-positive tumor model (e.g., subcutaneously xenografted MDA-MB-468 tumors in mice). Using whole-body PET imaging after the injection of ^124I-labeled zelavespib, Pillarsetty et al. reported drug presence in MDA-MB-468 tumors up to 120 h post-single dose administration (~T1/2 = 60 h). Conversely, zelavespib was no longer observed in non-disease, non-metabolizing tissues after ~8 h, clearing rapidly from plasma, paralleled by a similar rapid clearance from normal tissues (i.e., chaperone-positive but epichaperome-negative). In these tumors, a clear relationship between tumor retention, pharmacodynamic effects, and anti-tumor activity was observed, supporting the notion that zelavespib was in residence with its target over the time it resided in these tumors.
These values are very much in agreement with those reported for zelavespib in human patients. […] Contrasting plasma and normal tissues and organs, the distribution of zelavespib in tumors was best fitted using a bi-exponential model. […] The first phase thus reflects the clearance of systemic agent, while the second is attributable to specific tumor retention.
Figure 1 Biodistribution of zelavespib in MDA-MB-468 tumor-bearing mice. (a) Biodistribution of [^124I]-Zelavespib in MDA-MB-468 tumors, organs, tissues, and plasma as per ref. [32]. Data are presented as means ± s.d., five mice per time point. Curves for blood, lung, heart, muscle, bone, and brain were fitted using a one-phase decay equation, and kinetics of zelavespib clearance were determined. Tumor curve was fitted to a two-phase exponential decay. k, kfast, and kslow are the rate constants. Half-life (T1/2) is computed as ln(2)/k. […] (b) Illustrative schematic showing the distinct binding kinetics of zelavespib to epichaperomes (slow off-rate) and to chaperone assemblies (fast off-rate). The tumor pharmacokinetics profile recorded in the Phase 2 interval may represent a direct reflection of the in vivo kinetics of target–drug unbinding. koff, kinetic rate constant for dissociation of an epichaperome-zelavespib assembly. Rt, retention time. […]

[3] = MDA-MB-468 tumor-bearing mice, one-phase exponential decay fit of data of ref 32
[4] = MDA-MB-468 tumor, bi-exponential fit, Phase 1: 0 to 8 h, data of ref 32
[5] = MDA-MB-468 tumor, bi-exponential fit, slow terminal clearance phase, data of ref 32
[6] = one-phase decay fit of data of ref 32

SMILES: CC(C)NCCCn1c(Sc2cc3c(cc2[124I])OCO3)nc2c(N)ncnc21 [[^124I]-zelavespib]
- T1/2 in MDA-MB-468 tumors [1]: ~60 h
- drug presence in MDA-MB-468 tumors, time post-single dose administration [1]: up to 120 h
- half-life (T1/2), bone [2, 3]: 2.844 h
- half-life (T1/2), brain [2, 3]: 2.655 h
- half-life (T1/2), heart [2, 3]: 3.102 h
- half-life (T1/2), lung [2, 3]: 3.367 h
- half-life (T1/2), muscle [2, 3]: 5.034 h
- half-life (T1/2), plasma/blood [2, 3]: 4.380 h
- tumor Phase 1 T1/2 [2, 4]: 2.876 h
- tumor Phase 1 rate constant k (kfast) [2, 4]: 0.2410 h⁻¹
- tumor Phase 2 T1/2 [2, 5]: 46.80 h
- tumor Phase 2 rate constant k (kslow) [2, 5]: 0.0148 h⁻¹
- clearance rate constant k, blood [2, 6]: 0.1583 h⁻¹
- clearance rate constant k, bone [2, 6]: 0.2437 h⁻¹
- clearance rate constant k, brain [2, 6]: 0.2611 h⁻¹
- clearance rate constant k, heart [2, 6]: 0.2234 h⁻¹
- clearance rate constant k, lung [2, 6]: 0.2059 h⁻¹
- clearance rate constant k, muscle [2, 6]: 0.1377 h⁻¹
